The results in this text go back to EPA's ToxRefDB 2.

In series [1] the test system is rabbit. The following applies: Prenatal developmental toxicity study, new zealand white, Oral, Gavage/Intubation, dose end: 19 GD.
Series [2] deals with dog. Conditions: Chronic toxicity; beagle; Oral; Feed; dose end: 1 year; group: systemic; systemic / pathology microscopic / skeletal muscle / degeneration + systemic / pathology microscopic / skeletal muscle / infiltration ….
Series [3] has as its system rat. Conditions: Prenatal developmental toxicity study, sprague dawley, Oral, Gavage/Intubation, dose end: 15 GD.
For series [4], the system named is rat. Conditions: Multigenerational reproductive toxicity study, other, Oral, Feed, dose end: 2 generation.
The subject of series [5] is mouse. The following applies: Carcinogenicity; cd1; Oral; Feed; dose end: 78 week; group: systemic; systemic / in life observation / body weight / body weight gain + systemic / organ weight / liver / relative to body weight + systemic / ….
The subject of series [6] is rat. The following applies: Combined chronic toxicity/carcinogenicity, sprague dawley, Oral, [Not Specified], dose end: 104 week, group: systemic.
The subject of series [7] is dog. Conditions: Chronic toxicity; beagle; Oral; Feed; dose end: 52 week; group: systemic; systemic / hematology / anemia / anemia - hemolytic + systemic / hematology / platelet / platelet + systemic / in life observation / body ….
In series [8] the test system is rabbit. Conditions: Prenatal developmental toxicity study, new zealand white, Oral, Gavage/Intubation, dose end: 19 GD. This is another data set of the same source.
For series [9], the system named is rat. Conditions: Peri- and post-natal toxicity study (Segment III); long evans; Injection; Subcutaneous; dose end: 3 PND; group: developmental; developmental / developmental landmark / vaginal opening / vaginal opening.
Series [10] relates to rat. The following applies: Multigenerational reproductive toxicity study, sprague dawley, Oral, Water, dose end: 2 generation.
Series [11] concerns mouse. The following applies: Prenatal developmental toxicity study, cd1, Oral, Gavage/Intubation, dose end: 15 GD.
In series [12] the test system is mouse. The following applies: Carcinogenicity, b6c3f1, Oral, Water, dose end: 103 week, group: systemic.
For series [13], the system named is rat. The following applies: Carcinogenicity, fischer, Oral, Water, dose end: 103 week, group: systemic.
For series [14], the system named is dog. Conditions: Chronic toxicity, beagle, Oral, Feed, dose end: 104 week, group: systemic.
Series [15] relates to rat. Conditions: Prenatal developmental toxicity study, sprague dawley, Oral, Gavage/Intubation, dose end: 20 GD.
The subject of series [16] is rat. Conditions: Multigenerational reproductive toxicity study, sprague dawley, Oral, [Not Specified], dose end: 2 generation.
The mark [17] stands for this setting: group: developmental, developmental / developmental malformation / bone / short supernumerary.
Setting [18] is: group: maternal, systemic / in life observation / body weight / body weight gain + systemic / in life observation / food consumption / food consumption.
The mark [19] stands for this setting: group: maternal, systemic / in life observation / body weight / body weight gain + systemic / in life observation / food consumption / food consumption + ….
Setting [20] is: group: developmental, developmental / developmental malformation / bone / delayed ossification + systemic / in life observation / body weight / fetal weight.
[21] abbreviates: group: developmental, developmental / developmental malformation / bone / delayed ossification + systemic / in life observation / body weight / fetal weight + ….
Setting [22] is: group: maternal, systemic / in life observation / body weight / body weight + systemic / in life observation / body weight / body weight gain + systemic / in….
Where [23] appears, read: group: offspring, developmental / offspring survival late / viability index / viability index.
Setting [24] is: group: offspring, developmental / offspring survival late / viability index / viability index + systemic / in life observation / body weight / offspring (pup….
Where [25] appears, read: group: parental, systemic / organ weight / liver / absolute + systemic / organ weight / liver / relative to body weight + systemic / pathology microscopic / ….
Setting [26] is: systemic / pathology gross / eye / discolored + systemic / pathology microscopic / eye / inflammation + systemic / pathology microscopic / ….
[27] abbreviates: group: developmental, developmental / developmental malformation / bone / supernumerary.
[28] abbreviates: group: maternal, systemic / in life observation / body weight / body weight gain + systemic / in life observation / clinical signs / defecation + systemic / ….
[29] abbreviates: group: offspring, developmental / developmental landmark / preputial separation / preputial separation + systemic / in life observation / body weight / ….
Setting [30] is: group: parental, systemic / in life observation / body weight / body weight + systemic / in life observation / body weight / body weight gain + systemic / in….
[31] abbreviates: group: parental, systemic / in life observation / clinical signs / red or crusty deposits around eyes, ears, nose, or mouth + systemic / in life observation….
Where [32] appears, read: group: reproductive, reproductive / offspring survival early / dead fetuses / dead fetuses.
The mark [33] stands for this setting: group: developmental, developmental / developmental malformation / mouth / jaw / cleft palate + systemic / in life observation / body weight / fetal weight.
Setting [34] is: systemic / in life observation / body weight / body weight + systemic / in life observation / water consumption / water consumption.
The mark [35] stands for this setting: systemic / pathology microscopic / uterus / interstitial stromal tumor + systemic / in life observation / body weight / body weight + ….
Setting [36] is: systemic / in life observation / body weight / body weight + systemic / in life observation / water consumption / water consumption + ….
[37] abbreviates: systemic / pathology microscopic / adrenal gland / pheochromocytoma nos + systemic / pathology microscopic / bone marrow / leukemia + ….
The mark [38] stands for this setting: systemic / clinical chemistry / alkaline phosphatase (alp/alk) / alkaline phosphatase (alp/alk) + systemic / organ weight / liver / absolute….
Setting [39] is: systemic / pathology microscopic / spleen / hemosiderosis.
Where [40] appears, read: group: developmental, developmental / developmental malformation / bone / misaligned + developmental / developmental malformation / mouth / jaw / protruding ….
[41] abbreviates: group: offspring, systemic / in life observation / body weight / offspring (pup) weight.
[42] abbreviates: group: parental, systemic / in life observation / body weight / body weight + systemic / in life observation / clinical signs / [other] + systemic / in life ….
Where [43] appears, read: group: reproductive, reproductive / reproductive performance / gestational length / gestational length.

In the series on rabbit [1] (setting [17]), `Cc1cnc(C2=NC(C)(C(C)C)C(=O)N2)c(C(=O)O)c1` (centres undefined) [Imazapic] returned an LEL of 350 mg/kg/day, an LOAEL above 700 mg/kg/day, an NEL of 175 mg/kg/day and an NOAEL of at least 700 mg/kg/day. In the series with rabbit [1] (setting [18]), the LEL came to 500 mg/kg/day and the LOAEL came out at 500 mg/kg/day. Also, in the series with rabbit [1] (setting [19]), the NEL worked out at 350 mg/kg/day and the NOAEL was 350 mg/kg/day. For the same molecule, in the series on dog [2], the LEL came to 137 mg/kg/day, the LOAEL was found to be 137 mg/kg/day, the NEL was below 137 mg/kg/day and the NOAEL is below 137 mg/kg/day.
Consider `CS(=O)(=O)c1cc(C(F)(F)F)ccc1C(=O)c1cnoc1C1CC1` [Isoxaflutole], for which the LEL in the series with rat [3] (setting [20]) was found to be 100 mg/kg/day; in the series on rat [3] (setting [22]) it was 500 mg/kg/day; in the series on rat [4] (setting [23]), 17.4 mg/kg/day; with rat [4] (setting [25]), 17.4 mg/kg/day; in the series with mouse [5], 64.4 mg/kg/day; in the series on rat [6] (setting [26]), 20 mg/kg/day. In addition, the LEL in the series with dog [7] was found to be 453 mg/kg/day; with rabbit [8] (setting [27]) it was 5 mg/kg/day; in the series on rabbit [8] (setting [28]), 100 mg/kg/day. Further, the LOAEL turned out to be 100 mg/kg/day in the series with rat [3] (setting [20]); 500 mg/kg/day with rat [3] (setting [22]); 17.4 mg/kg/day with rat [4] (setting [23]); 17.4 mg/kg/day in the series with rat [4] (setting [25]); 64.4 mg/kg/day with mouse [5]; 20 mg/kg/day in the series with rat [6] (setting [26]). The LOAEL was found to be 453 mg/kg/day in the series on dog [7], 5 mg/kg/day in the series on rabbit [8] (setting [27]) and 100 mg/kg/day in the series on rabbit [8] (setting [28]). Moreover, the NEL with rat [3] (setting [21]) worked out at 10 mg/kg/day; in the series on rat [3] (setting [22]), 100 mg/kg/day; with rat [4] (setting [24]) it was 1.76 mg/kg/day; with rat [4] (setting [25]), 1.76 mg/kg/day; in the series on mouse [5], 3.2 mg/kg/day; with rat [6] (systemic / organ weight / liver / absolute + systemic / organ weight / liver / relative to body weight + systemic / pathology gross / liver…) it was 2 mg/kg/day. Moreover, the results for the NEL in the series with dog [7], in the series with rabbit [8] (setting [27]) and in the series on rabbit [8] (setting [28]) were 44.8 mg/kg/day, below 5 mg/kg/day and 20 mg/kg/day, respectively. Further, the no-observed-adverse-effect level (NOAEL) with rat [3] (setting [21]) came to 10 mg/kg/day; with rat [3] (setting [22]) it was 100 mg/kg/day; in the series on rat [4] (setting [24]) it was 1.76 mg/kg/day; with rat [4] (setting [25]) it was 1.76 mg/kg/day; with mouse [5] it was 3.2 mg/kg/day; with rat [6] (setting [26]) it was 2 mg/kg/day. In addition, the NOAEL was 44.8 mg/kg/day with dog [7], below 5 mg/kg/day in the series on rabbit [8] (setting [27]) and 20 mg/kg/day in the series on rabbit [8] (setting [28]).
In the series with rat [9], `CC#C[C@]1(O)CC[C@H]2[C@@H]3CCC4=CC(=O)CCC4=C3[C@@H](c3ccc(N(C)C)cc3)C[C@@]21C` [Mifepristone] registered an LEL of 200 ppm, an LOAEL above 600 ppm, an NEL below 200 ppm and an NOAEL of at least 600 ppm.
Turning to `Oc1ccccc1` [Phenol], the LEL came out at 318 mg/kg/day with rat [10] (setting [29]); 13.5 mg/kg/day in the series with rat [10] (setting [31]); 318 mg/kg/day with rat [10] (setting [32]); 280 mg/kg/day in the series on mouse [11] (setting [33]); 280 mg/kg/day in the series on mouse [11] (setting [22]); 375 mg/kg/day in the series with mouse [12] (setting [34]). In addition, the LEL with rat [13] (setting [37]) came out at 125 mg/kg/day. For the same molecule, the LOAEL in the series on rat [10] (setting [29]) was above 318 mg/kg/day; in the series with rat [10] (setting [30]) it was above 301 mg/kg/day; in the series with rat [10] (setting [32]), above 318 mg/kg/day; in the series with mouse [11] (setting [33]) it was above 280 mg/kg/day; in the series with mouse [11] (setting [22]) it was above 280 mg/kg/day; in the series on mouse [12] (setting [35]) it was above 750 mg/kg/day. In the series with rat [13] (setting [36]), the LOAEL was above 250 mg/kg/day. Besides, the NEL is 69.8 mg/kg/day in the series with rat [10] (setting [29]); below 13.5 mg/kg/day in the series with rat [10] (setting [31]); 69.8 mg/kg/day in the series on rat [10] (setting [32]); 140 mg/kg/day in the series on mouse [11] (setting [33]); 140 mg/kg/day in the series on mouse [11] (setting [22]); below 375 mg/kg/day in the series with mouse [12] (setting [34]). The NEL with rat [13] (setting [37]) was below 125 mg/kg/day. Further, the NOAEL with rat [10] (setting [29]) is at least 318 mg/kg/day; with rat [10] (setting [30]) it was at least 301 mg/kg/day; in the series with rat [10] (setting [32]) it was at least 318 mg/kg/day; in the series on mouse [11] (setting [33]) it was at least 280 mg/kg/day; in the series with mouse [11] (setting [22]), at least 280 mg/kg/day; in the series with mouse [12] (setting [35]), at least 750 mg/kg/day. Further, the NOAEL in the series with rat [13] (setting [36]) is at least 250 mg/kg/day.
Take `CC(C)N(C(=O)SCC(Cl)=C(Cl)Cl)C(C)C` [Tri-allate]: the LOAEL in the series with dog [14] (setting [38]) came to 5 mg/kg/day; in the series on rat [15] (setting [40]), 90 mg/kg/day; in the series on rat [15] (setting [18]), 30 mg/kg/day; in the series on rat [16] (group: offspring, systemic / in life observation / body weight / offspring (pup) weight + developmental / offspring survival late / [other] / [other]) it was 30 mg/kg/day; with rat [16] (setting [42]), 30 mg/kg/day; with rat [16] (setting [43]), 30 mg/kg/day. Moreover, the NOAEL was found to be 1.5 mg/kg/day in the series with dog [14] (setting [38]); 30 mg/kg/day with rat [15] (setting [40]); 10 mg/kg/day in the series with rat [15] (setting [19]); 7.5 mg/kg/day in the series with rat [16] (setting [41]); 7.5 mg/kg/day in the series on rat [16] (setting [42]); 7.5 mg/kg/day in the series with rat [16] (setting [43]). Besides, the LEL was determined as 1.5 mg/kg/day in the series with dog [14] (setting [39]); 90 mg/kg/day in the series with rat [15] (setting [40]); 30 mg/kg/day with rat [15] (setting [19]); 2.5 mg/kg/day in the series on rat [16] (setting [41]); 7.5 mg/kg/day in the series on rat [16] (group: parental, systemic / in life observation / body weight / body weight + systemic / organ weight / ovary / relative to body weight + systemic / organ …); 30 mg/kg/day with rat [16] (setting [43]). In addition, the NEL in the series on dog [14] (setting [39]) is below 1.5 mg/kg/day; in the series with rat [15] (setting [40]), 30 mg/kg/day; in the series with rat [15] (setting [19]), 10 mg/kg/day; in the series with rat [16] (setting [41]), below 2.5 mg/kg/day; in the series with rat [16] (setting [42]) it was 2.5 mg/kg/day; in the series on rat [16] (setting [43]), 7.5 mg/kg/day.

A word on the LOAEL: it is the lowest dose or exposure tested at which an adverse effect was seen. For orientation: NOAEL means the highest dose or exposure tested at which no adverse effect was seen.
